The record followed here is US12503473B2, “Triazolopyrimidine compounds and their use in treating cancer” (Dizal (Jiangsu) Pharmaceutical Co., Ltd., priority 2018, dated 2025).

SMILES strings stand for the structures.

In test [1] the target is T1, MCT4 (Homo sapiens, UniProt O15427).
T1 sequence (O15427 1-465): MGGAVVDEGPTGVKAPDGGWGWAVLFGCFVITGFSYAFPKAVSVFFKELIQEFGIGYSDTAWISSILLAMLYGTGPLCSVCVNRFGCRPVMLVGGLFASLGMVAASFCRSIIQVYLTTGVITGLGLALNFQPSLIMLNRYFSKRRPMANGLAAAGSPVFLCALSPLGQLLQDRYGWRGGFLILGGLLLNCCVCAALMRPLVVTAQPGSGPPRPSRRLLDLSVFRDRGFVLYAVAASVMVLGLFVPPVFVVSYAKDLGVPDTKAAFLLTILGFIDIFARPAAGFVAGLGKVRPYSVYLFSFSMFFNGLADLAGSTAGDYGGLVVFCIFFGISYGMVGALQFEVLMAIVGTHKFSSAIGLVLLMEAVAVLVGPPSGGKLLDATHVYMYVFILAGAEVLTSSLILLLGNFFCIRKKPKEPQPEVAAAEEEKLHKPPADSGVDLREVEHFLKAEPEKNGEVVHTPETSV
The test can be described thus: Assay (a): lactate efflux from SK-Br-3 cells (lactate in media, 4 h). On the set-up: a natively glycolytic human breast adenocarcinoma line predominantly expressing MCT4; host or cells: SK-Br-3. In kind it is cell-based. Conditions: mean of at least three repeats (Example 32, marked *, two repeats), read-out: MCT4 lactate efflux pIC50 (SKBR3) (converted). The procedure: Assay plates were lidded and incubated for 4 hours at 37° C. and 5% CO2.

The target of test [2] is T1, MCT4. The test can be described thus: cell-based.
Procedure: Cells were loaded with the pH sensitive dye BCECFAM(Invitrogen #B11150) before being washed to remove excess dye and seeded into the assay plates—directly onto the test compound—at a density of 15,000 cells/well (NCI—H358) or 30,000 cells/well (K562), in 30 μl HBSS with 1 mM [final] […] Assay plates were lidded and spun in a plate centrifuge at 170 g for 1 minute. Plates were then wrapped in foil and incubated in the dark for 1 hour at room temperature.
Following incubation with test compound, 10 μl of 25 mM Sodium-L-Lactate (Sigma #L7022) made up in HBSS with 1 mM [final] […] This addition was performed directly on the FLIPR Tetra platform (Molecular Devices) as part of a real-time kinetic read protocol. […] A percentage change from base-line was calculated for each test well and values normalised to control wells—treated with either DMSO (maximum assay signal) or chemistry related to that described in this patent (minimum assay signal)—before fitting concentration response curves to determine an IC50 value.

`Cc1nc2nc(C)c(C[C@@H]3CCN(c4cnc(-c5ccc(CN6CCN(C)C[C@@H]6C)cc5)nc4)C3)c(C)n2n1` [Example 10, 6-(((R)-1-(2-(4-(((S)-2,4-dimethylpiperazin-1-yl)methyl)phenyl)pyrimidin-5-yl)pyrrolidin-3-yl)methyl)-2,5,7-trimethyl-[1,2,4]triazolo[1,5-a]pyrimidine]: the IC50 is 0.501 nM at MCT4 [1] and 31.6 nM on MCT4 [2].
`Cc1nc2nc(C)c(C[C@@H]3CCN(c4cnc(-c5ccc(CN6CCOCC6)nc5)nc4)C3)c(C)n2n1` [Example 11, (R)-4-((5-(5-(3-((2,5,7-trimethyl-[1,2,4]triazolo[1,5-a]pyrimidin-6-yl)methyl)pyrrolidin-1-yl)pyrimidin-2-yl)pyridin-2-yl)methyl)morpholine]: the IC50 on MCT4 [1] was 0.316 nM; against MCT4 [2] it was 7.94 nM.
Turning to `Cc1nc2nc(C)c(C[C@@H]3CCN(c4cnc(-c5ccc(CN6CCN(CCO)CC6)cc5)nc4)C3)c(C)n2n1` [Example 16, (R)-2-(4-(4-(5-(3-((2,5,7-trimethyl-[1,2,4]triazolo[1,5-a]pyrimidin-6-yl)methyl)pyrrolidin-1-yl)pyrimidin-2-yl)benzyl)piperazin-1-yl)ethanol], the IC50 on MCT4 [1] is 0.501 nM; against MCT4 [2], 31.6 nM.
For `Cc1nc2nc(C)c(C[C@@H]3CCN(c4cnc(-c5ccc(CN6CCOCC6)cc5)nc4)C3)c(C)n2n1` [Example 19, (R)-4-(4-(5-(3-((2,5,7-trimethyl-[1,2,4]triazolo[1,5-a]pyrimidin-6-yl)methyl)pyrrolidin-1-yl)pyrimidin-2-yl)benzyl)morpholine], the IC50 at MCT4 [1] was 0.2 nM; against MCT4 [2], 7.94 nM.
On the same counts, the results for `Cc1nc2nc(C)c(C[C@@H]3CCN(c4cnc(-c5ccc(CN6CCN(C)CC6)cc5)nc4)C3)c(C)n2n1` [Example 20, (R)-2,5,7-trimethyl-6-((1-(2-(4-((4-methylpiperazin-1-yl)methyl)phenyl)pyrimidin-5-yl)pyrrolidin-3-yl)methyl)-[1,2,4]triazolo[1,5-a]pyrimidine] are 0.501 nM and 39.8 nM.
With `Cc1nc2nc(C)c(C[C@@H]3CCN(c4ccc(-c5cnc(CN6CCN(C)CC6)cn5)cc4)C3)c(C)n2n1` [Example 21, (R)-2,5,7-trimethyl-6-((1-(4-(5-((4-methylpiperazin-1-yl)methyl)pyrazin-2-yl)phenyl)pyrrolidin-3-yl)methyl)-[1,2,4]triazolo[1,5-a]pyrimidine], the IC50 is 1.26 nM on MCT4 [1] and 20 nM on MCT4 [2].
On the same counts, the results for `Cc1nc2nc(C)c(C[C@@H]3CCN(c4ccc(-c5ccc(CN6CCOCC6)cn5)cc4)C3)c(C)n2n1` [Example 23, (R)-4-((6-(4-(3-((2,5,7-trimethyl-[1,2,4]triazolo[1,5-a]pyrimidin-6-yl)methyl)pyrrolidin-1-yl)phenyl)pyridin-3-yl)methyl)morpholine] are 0.398 nM and 6.31 nM.
Take `Cc1nc2nc(C)c(C[C@@H]3CCN(c4ccc(-c5ccc(CN6CCN(C)CC6)cn5)cc4)C3)c(C)n2n1` [Example 27, (R)-2,5,7-trimethyl-6-((1-(4-(5-((4-methylpiperazin-1-yl)methyl)pyridin-2-yl)phenyl)pyrrolidin-3-yl)methyl)-[1,2,4]triazolo[1,5-a]pyrimidine]: the IC50 was 0.631 nM on MCT4 [1] and 20 nM against MCT4 [2].
Consider `COc1cc(CN2CCN(C)CC2)ccc1-c1ncc(N2CC[C@@H](Cc3c(C)nc4nc(C)nn4c3C)C2)nc1C` [Example 31, (R)-6-((1-(5-(2-methoxy-4-((4-methylpiperazin-1-yl)methyl)phenyl)-6-methylpyrazin-2-yl)pyrrolidin-3-yl)methyl)-2,5,7-trimethyl-[1,2,4]triazolo[1,5-a]pyrimidine], for which the IC50 on MCT4 [1] was 3.16 nM; on MCT4 [2], 50.1 nM.
On the same counts, the results for `Cc1nc2nc(C)c(C[C@@H]3CCN(c4cnc(-c5ccc(CN6CCCCC6)cc5)cn4)C3)c(C)n2n1` [Example 37, 2,5,7-trimethyl-6-[[(3R)-1-[5-[4-(1-piperidylmethyl)phenyl]pyrazin-2-yl]pyrrolidin-3-yl]methyl]-[1,2,4]triazolo[1,5-a]pyrimidine] are 0.398 nM and 6.31 nM.
For `CCN1CCN(Cc2ccc(-c3cnc(N4CC[C@@H](Cc5c(C)nc6nc(C)nn6c5C)C4)cn3)cc2)CC1` [Example 38, (R)-6-((1-(5-(4-((4-ethylpiperazin-1-yl)methyl)phenyl)pyrazin-2-yl)pyrrolidin-3-yl)methyl)-2,5,7-trimethyl-[1,2,4]triazolo[1,5-a]pyrimidine] the same measures were 3.98 nM and 31.6 nM.
As for `Cc1nc2nc(C)c(C[C@@H]3CCN(c4cnc(-c5ccc(CN6C[C@@H](C)N[C@@H](C)C6)cc5)cn4)C3)c(C)n2n1` [Example 40, 6-(((R)-1-(5-(4-(((3R,5S)-3,5-dimethylpiperazin-1-yl)methyl)phenyl)pyrazin-2-yl)pyrrolidin-3-yl)methyl)-2,5,7-trimethyl-[1,2,4]triazolo[1,5-a]pyrimidine], the IC50 at MCT4 [1] was 1.26 nM; at MCT4 [2], 63.1 nM.
Turning to `COc1cc(CN2CCN(C)CC2)ccc1-c1cnc(N2CC[C@@H](Cc3c(C)nc4nc(C)nn4c3C)C2)cn1` [Example 43, (R)-6-((1-(5-(2-methoxy-4-((4-methylpiperazin-1-yl)methyl)phenyl)pyrazin-2-yl)pyrrolidin-3-yl)methyl)-2,5,7-trimethyl-[1,2,4]triazolo[1,5-a]pyrimidine], the IC50 on MCT4 [1] was 0.631 nM; on MCT4 [2], 20 nM.
For `Cc1nc2nc(C)c(C[C@@H]3CCN(c4cnc(-c5ccc(CN6CCOCC6)cn5)c(C)n4)C3)c(C)n2n1` [Example 47, (R)-4-((6-(3-methyl-5-(3-((2,5,7-trimethyl-[1,2,4]triazolo[1,5-a]pyrimidin-6-yl)methyl)pyrrolidin-1-yl)pyrazin-2-yl)pyridin-3-yl)methyl)morpholine], the IC50 on MCT4 [1] was 2 nM; at MCT4 [2], 10 nM.
As to `Cc1nc2nc(C)c(C[C@@H]3CCN(c4cnc(-c5ccc(CN6CCN(C)[C@@H](C)C6)cc5)cn4)C3)c(C)n2n1` [Example 48, 6-(((R)-1-(5-(4-(((S)-3,4-dimethylpiperazin-1-yl)methyl)phenyl)pyrazin-2-yl)pyrrolidin-3-yl)methyl)-2,5,7-trimethyl-[1,2,4]triazolo[1,5-a]pyrimidine], the IC50 on MCT4 [1] is 1.58 nM; against MCT4 [2] it was 10 nM.
Consider `Cc1nc2nc(C)c(C[C@@H]3CCN(c4cnc(-c5ccc(CN6CCOCC6)nc5)cn4)C3)c(C)n2n1` [Example 49, (R)-4-((5-(5-(3-((2,5,7-trimethyl-[1,2,4]triazolo[1,5-a]pyrimidin-6-yl)methyl)pyrrolidin-1-yl)pyrazin-2-yl)pyridin-2-yl)methyl)morpholine], for which the IC50 on MCT4 [1] was 0.631 nM; against MCT4 [2], 7.94 nM.
With `Cc1nc2nc(C)c(C[C@@H]3CCN(c4cnc(-c5ccc(CN6CCN(S(C)(=O)=O)CC6)cc5)cn4)C3)c(C)n2n1` [Example 52, 2,5,7-trimethyl-6-({(3R)-1-[5-(4-{[4-(methylsulfonyl)piperazin-1-yl]methyl}phenyl)pyrazin-2-yl]pyrrolidin-3-yl}methyl)[1,2,4]triazolo[1,5-a]pyrimidine], the IC50 on MCT4 [1] is 0.2 nM; at MCT4 [2] it was 10 nM.
In the case of `Cc1nc2nc(C)c(C[C@@H]3CCN(c4cnc(-c5ccc(CN6CCN(CC(=O)N(C)C)CC6)cc5)cn4)C3)c(C)n2n1` [Example 53, (R)—N,N-dimethyl-2-(4-(4-(5-(3-((2,5,7-trimethyl-[1,2,4]triazolo[1,5-a]pyrimidin-6-yl)methyl)pyrrolidin-1-yl)pyrazin-2-yl)benzyl)piperazin-1-yl)acetamide], the IC50 was 0.631 nM on MCT4 [1] and 25.1 nM on MCT4 [2].
In the case of `Cc1nc2nc(C)c(C[C@@H]3CCN(c4cnc(-c5ccc(CN6CCN(C)CC6)cc5)c(C)n4)C3)c(C)n2n1` [Example 54, (R)-2,5,7-trimethyl-6-((1-(6-methyl-5-(4-((4-methylpiperazin-1-yl)methyl)phenyl)pyrazin-2-yl)pyrrolidin-3-yl)methyl)-[1,2,4]triazolo[1,5-a]pyrimidine], the IC50 was 0.398 nM at MCT4 [1] and 7.94 nM on MCT4 [2].
On to `Cc1nc2nc(C)c(C[C@@H]3CCN(c4cnc(-c5ccc(CN6CCN(C(=O)N(C)C)CC6)cc5)cn4)C3)c(C)n2n1` [Example 55, N,N-dimethyl-4-[4-(5-{(3R)-3-[(2,5,7-trimethyl[1,2,4]triazolo[1,5-a]pyrimidin-6-yl)methyl]pyrrolidin-1-yl}pyrazin-2-yl)benzyl]piperazine-1-carboxamide], for which the IC50 at MCT4 [1] was 0.251 nM; against MCT4 [2] it was 10 nM.
For the molecule `Cc1nc2nc(C)c(C[C@@H]3CCN(c4cnc(-c5ccc(CN6CCN(C)CC6)c(C)c5)cn4)C3)c(C)n2n1` [Example 56, (R)-2,5,7-trimethyl-6-((1-(5-(3-methyl-4-((4-methylpiperazin-1-yl)methyl)phenyl)pyrazin-2-yl)pyrrolidin-3-yl)methyl)-[1,2,4]triazolo[1,5-a]pyrimidine], the figures for the IC50 on MCT4 [1] and at MCT4 [2] were 0.631 nM and 20 nM, respectively.
